Where two headings read alike, the source gives them in different places.
What was measured:
Assay in all cases: Kinase panel profiling at 1 µmol/L (MSA or IMAP), percentage inhibition
Type in all cases: biochemical
[1] = biological target: T1, panel of 255 wild-type kinases (Homo sapiens, UniProt O14920); details: kinase IKKβ; 1 µmol/L single concentration; read-out: %-inhibition at 1 µmol/L, IKKβ
T1 sequence (O14920 1-756): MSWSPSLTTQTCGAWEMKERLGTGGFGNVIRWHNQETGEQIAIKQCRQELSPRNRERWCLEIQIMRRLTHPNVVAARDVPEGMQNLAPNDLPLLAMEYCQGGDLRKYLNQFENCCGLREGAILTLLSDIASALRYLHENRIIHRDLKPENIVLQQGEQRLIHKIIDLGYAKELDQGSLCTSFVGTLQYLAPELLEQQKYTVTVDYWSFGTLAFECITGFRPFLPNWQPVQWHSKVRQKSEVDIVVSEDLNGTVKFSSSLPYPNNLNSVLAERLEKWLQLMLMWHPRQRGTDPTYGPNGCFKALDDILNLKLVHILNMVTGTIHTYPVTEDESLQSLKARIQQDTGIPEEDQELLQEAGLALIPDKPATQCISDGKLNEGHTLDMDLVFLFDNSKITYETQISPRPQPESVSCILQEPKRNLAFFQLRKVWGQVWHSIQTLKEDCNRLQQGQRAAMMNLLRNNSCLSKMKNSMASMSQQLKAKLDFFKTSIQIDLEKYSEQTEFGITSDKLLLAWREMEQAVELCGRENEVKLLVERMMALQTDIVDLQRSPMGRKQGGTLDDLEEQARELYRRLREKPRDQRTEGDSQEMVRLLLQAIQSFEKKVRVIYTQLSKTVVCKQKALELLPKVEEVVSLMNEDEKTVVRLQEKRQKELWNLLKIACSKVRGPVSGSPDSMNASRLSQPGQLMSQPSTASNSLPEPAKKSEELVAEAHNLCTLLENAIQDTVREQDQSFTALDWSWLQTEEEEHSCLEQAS

[2] = biological target: T2, panel of 255 wild-type kinases (Homo sapiens, UniProt Q9UHD2); details: kinase TBK1; 1 µmol/L single concentration; read-out: %-inhibition at 1 µmol/L, TBK1
T2 sequence (Q9UHD2 1-729): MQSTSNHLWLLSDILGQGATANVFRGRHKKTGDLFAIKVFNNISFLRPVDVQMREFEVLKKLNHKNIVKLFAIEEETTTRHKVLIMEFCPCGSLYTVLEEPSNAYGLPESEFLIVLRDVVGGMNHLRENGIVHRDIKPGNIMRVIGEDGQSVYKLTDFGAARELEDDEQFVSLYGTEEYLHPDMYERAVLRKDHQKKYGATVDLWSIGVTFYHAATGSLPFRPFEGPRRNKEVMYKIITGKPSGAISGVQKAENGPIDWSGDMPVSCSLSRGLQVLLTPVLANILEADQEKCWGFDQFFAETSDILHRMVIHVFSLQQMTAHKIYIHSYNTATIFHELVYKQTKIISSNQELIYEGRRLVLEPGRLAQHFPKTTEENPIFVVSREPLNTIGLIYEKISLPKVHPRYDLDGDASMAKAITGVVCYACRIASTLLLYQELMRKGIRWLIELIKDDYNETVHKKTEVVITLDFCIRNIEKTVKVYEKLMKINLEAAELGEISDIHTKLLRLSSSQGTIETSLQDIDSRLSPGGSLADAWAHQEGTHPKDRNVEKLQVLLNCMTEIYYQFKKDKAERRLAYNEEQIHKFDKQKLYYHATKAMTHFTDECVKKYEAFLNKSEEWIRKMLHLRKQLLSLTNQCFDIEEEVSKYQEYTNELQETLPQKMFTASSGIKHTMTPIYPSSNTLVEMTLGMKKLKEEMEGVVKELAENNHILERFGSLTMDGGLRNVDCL

[3] = biological target: panel of 255 wild-type kinases (Homo sapiens, UniProt Q8IY84); details: NIM1K; 1 µmol/L single concentration; read-out: %-inhibition, NIM1K
[4] = biological target: panel of 255 wild-type kinases (Homo sapiens, UniProt Q9HC98); details: NEK6; 1 µmol/L single concentration; read-out: %-inhibition, NEK6
[5] = biological target: panel of 255 wild-type kinases (Homo sapiens, UniProt P23458); details: kinase JAK1; 1 µmol/L single concentration; read-out: %-inhibition at 1 µmol/L, JAK1
[6] = biological target: panel of 255 wild-type kinases (Homo sapiens, UniProt Q13627); details: kinase DYRK1A; 1 µmol/L single concentration; read-out: %-inhibition at 1 µmol/L, DYRK1A
[7] = biological target: panel of 255 wild-type kinases (Homo sapiens, UniProt Q9H4A3); details: kinase WNK1; 1 µmol/L single concentration; read-out: %-inhibition at 1 µmol/L, WNK1
[8] = biological target: panel of 255 wild-type kinases (Homo sapiens, UniProt P10721); details: read-out: %-inhibition at 1 µmol/L, KIT
[9] = biological target: T3, panel of 255 wild-type kinases (Homo sapiens, UniProt P43403); details: kinase ZAP70; 1 µmol/L single concentration; read-out: %-inhibition at 1 µmol/L, ZAP70
T3 sequence (P43403 1-619): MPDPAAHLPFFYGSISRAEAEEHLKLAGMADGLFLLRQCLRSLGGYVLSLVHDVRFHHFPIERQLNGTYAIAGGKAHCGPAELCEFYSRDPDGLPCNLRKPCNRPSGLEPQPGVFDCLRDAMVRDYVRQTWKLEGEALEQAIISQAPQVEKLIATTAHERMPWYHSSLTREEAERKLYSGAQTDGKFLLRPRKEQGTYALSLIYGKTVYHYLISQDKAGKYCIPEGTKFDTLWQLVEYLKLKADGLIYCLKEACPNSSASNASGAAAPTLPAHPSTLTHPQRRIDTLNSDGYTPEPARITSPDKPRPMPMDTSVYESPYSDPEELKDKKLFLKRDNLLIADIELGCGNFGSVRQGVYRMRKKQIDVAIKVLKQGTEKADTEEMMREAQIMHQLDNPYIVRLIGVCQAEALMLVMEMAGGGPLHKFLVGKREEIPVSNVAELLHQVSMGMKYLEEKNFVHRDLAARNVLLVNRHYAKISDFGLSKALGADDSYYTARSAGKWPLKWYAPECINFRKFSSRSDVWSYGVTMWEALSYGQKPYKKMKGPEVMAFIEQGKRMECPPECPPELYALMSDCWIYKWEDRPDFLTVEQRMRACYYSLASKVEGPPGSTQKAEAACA

[10] = biological target: panel of 255 wild-type kinases (Homo sapiens, UniProt P04629); details: kinase TRKA; 1 µmol/L single concentration; read-out: %-inhibition at 1 µmol/L, TRKA
[11] = kinase KIT, 1 µmol/L single concentration

Row | SMILES | inhibition at 1 µM [1] [%] | inhibition at 1 µM [2] [%] | inhibition at 1 µM [3] [%] | inhibition at 1 µM [4] [%] | inhibition at 1 µM [5] [%] | inhibition at 1 µM [6] [%] | inhibition at 1 µM [7] [%] | inhibition at 1 µM [9] [%] | inhibition at 1 µM [10] [%] | inhibition at 1 µM [8, 11] [%] | inhibition at 1 µM [8] [%]
1 | CCN1C(=O)N(c2c(F)c(OC)cc(OC)c2F)Cc2cnc3[nH]c(CN4CCOCC4)cc3c21 [pemigatinib] | -1.22 | 0 | -1.5 | -2.6 | -2.65 | -2.67 | -3.59 | 2 | 14 |  | 23
2 | FC(F)(F)c1ccc(CNc2ccc(Cc3c[nH]c4ncc(Cl)cc34)cn2)cn1 [pexidartinib] | 5 | 6 | -1.06 | -0.796 | 7 | 8 | -1.24 | -7 | 79 | 87 | 
3 | C=CC(=O)N1CCC([C@@H]2CCNc3c(C(N)=O)c(-c4ccc(Oc5ccccc5)cc4)nn32)CC1 [zanubrutinib] | -0.69 | 0.115 | -1.66 | -1 | -3 | -4.37 | 0 | 2 | 9 | -4.47 | 

The next lines start with results.

Row | inhibition at 1 µM [1] [%] | inhibition at 1 µM [2] [%] | inhibition at 1 µM [3] [%] | inhibition at 1 µM [4] [%] | inhibition at 1 µM [5] [%] | inhibition at 1 µM [6] [%] | inhibition at 1 µM [7] [%] | inhibition at 1 µM [9] [%] | inhibition at 1 µM [10] [%] | inhibition at 1 µM [8, 11] [%] | SMILES | inhibition at 1 µM [8] [%]
4 | 32 | -0.586 | 0.843 | -0.0459 | 101 | -3 | -2.67 | 9 | 96 | 83 | CO[C@]1(C(=O)N[C@@H](C)c2ccc(-n3cc(F)cn3)nc2)CC[C@H](c2nc(C)cc(Nc3cc(C)[nH]n3)n2)CC1 [pralsetinib] | 
5 | -2.15 | 12 | -2 | 0.41 | 6 | 6 | -10 | 8 | 33 | 54 | COc1ccc(CN2C3CC2CN(c2ccc(-c4cc(OCC(C)(C)O)cn5ncc(C#N)c45)cn2)C3)cn1 [selpercatinib] | 
6 | 1.34 | -1.18 | -0.385 | -1.5 | 2.46 | -3.48 | -2.62 | -1.11 | 18 | -2.4 | Cn1cnc2c(F)c(Nc3ccc(Br)cc3Cl)c(C(=O)NOCCO)cc21 [selumetinib] | 
7 | 1 | -3 | 1.49 | 0.486 | 2.72 | -3.25 | -4 | 3.36 | 20 | -1.27 | Cc1cc(Nc2ncnc3ccc(NC4=NC(C)(C)CO4)cc23)ccc1Oc1ccn2ncnc2c1 [tucatinib] | 

From PMC9516332 (Frontiers in Oncology, 2022)
